The values that follow come from EP1184374A1, “Carboxamide derivatives of pyrrolidine, piperidine and hexahydroazepine for the treatment of thrombosis disorders” (ORTHO PHARMACEUTICAL CORPORATION, priority 1996, dated 1997).

One assay deals with GPIIb/IIIa (Homo sapiens, UniProt P05106+P08514). The assay is described as follows: In vitro solid phase purified glycoprotein IIb/IIIa binding assay (biotinylated fibrinogen binding). As to conditions: for inhibition at 50 µM: read-out: Fibrinogen Binding % Inh. (50 µM). As for the experimental part: IN VITRO SOLID PHASE PURIFIED GLYCOPROTEIN IIB/IIIA BINDING ASSAY.
The plate is covered and incubated overnight at 4°C. The GPIIb/IIa solution is discarded and 150 µl of 5% BSA is added and incubated at RT for 1-3 h. The plate is washed extensively with modified Tyrodes buffer. Biotinylated fibrinogen (25 µl/well) at 2 x final concentration is added to the wells that contain the test compounds (25 µl/well). The plate is covered and incubated at RT for 2-4 h. Twenty minutes prior to incubation completion, one drop of Reagent A (Vecta Stain ABC Horse Radish Peroxidase kit, Vector Laboratories, Inc.) and one drop Reagent B are added with mixing to 5 mL modified Tyrodes buffer mix and let stand. The ligand solution is discarded and the plate washed (5 x 200 µl/well) with modified Tyrodes buffer. Vecta Stain HRP-Biotin-Avidin reagent (50 µl/well, as prepared above) is added and incubated at RT for 15 min. The Vecta Stain solution is discarded and the wells washed (5 x 200 µl/well) with modified Tyrodes buffer. Developing buffer (10 mL of 50 mM citrate/phosphate buffer @ pH 5.3, 6 mg o-phenylenediamine, 6 µl 30% H2O2; 50 µl/well) is added and incubated at RT for 3-5 min, and then 2N H2SO4 (50 µl/well) is added. The absorbance is read at 490 nm.

A further assay concerns gel-filtered platelets. The experiment in a line: In vitro inhibition of thrombin-induced gel-filtered platelet aggregation. In kind it is cell-based. As to conditions: Homo sapiens; for inhibition at 50 µM: read-out: Platelet Aggregation % Inh. (50µM). As for the experimental part:
IN VITRO INHIBITION OF THROMBIN-INDUCED GEL-FILTERED PLATELET AGGREGATION ASSAY.
The percentage of platelet aggregation is calculated as an increase in light transmission of compound-treated platelet concentrate vs. control-treated platelet concentrate. Human blood is obtained from drug free, normal donors into tubes containing 0.13M sodium citrate. Platelet rich plasma (PRP) is collected by centrifugation of whole blood at 200 x g for 10 min at 25°C. The PRP (5 mL) is gel filtered through Sepharose 2B (bed volume 50 mL), and the platelet count is adjusted to 2x10^7 platelets per sample. The following constituents are added to a siliconized cuvette: concentrated platelet filtrate and Tyrode's buffer (0.14M NaCl, 0.0027MKCl, 0.012M NaHCO3, 0.76 mM Na2HPO4, 0.0055M glucose, 2 mg/mL BSA and 5.0mM HEPES @ pH 7.4) in an amount equal to 350 µl, 50 µl of 20 mM calcium and 50 µl of the test compound. Aggregation is monitored in a BIODATA aggregometer for the 3 min following the addition of agonist (thrombin 50 µl of 1 unit/mL).

Assay [1] concerns collagen- or ADP-induced ex vivo platelet aggregation. The assay is described as follows: Ex vivo dog study (platelet aggregation, hemodynamics, bleeding time, coagulation, cell counts). In kind it is in vivo, dogs. As for the experimental part: Adult mongrel dogs (8-13 kg) were anesthetized with sodium pentobarbital (35 mg/kg, i.v.) and artificially respired. Arterial blood pressure and heart rate were measured using a Millar catheter-tip pressure transducer inserted in a femoral artery. Another Millar transducer was placed in the left ventricle (LV) via a carotid artery to measure LV end diastolic pressure and indices of myocardial contractility. A lead II electrocardiogram was recorded from limb electrodes. Catheters were placed in a femoral artery and vein to sample blood and infuse drugs, respectively. Responses were continuously monitored using a Modular Instruments data aquisition system.
Arterial blood samples (5-9 ml) were withdrawn into tubes containing 3.8% sodium citrate to prepare platelet rich plasma (PRP) and to determine effects on coagulation parameters: prothrombin time (PT) and activated partial thromboplastin time (APTT). Separate blood samples (1.5 ml) were withdrawn in EDTA to determine hematocrit and cell counts (platelets, RBC's and white cells). Template bleeding times were obtained from the buccal surface using a symplate incision devise and Whatman filter paper.
Aggregation of PRP was performed using a BioData aggregometer. Aggregation of whole blood used a Chronolog impedance aggregometer. PT and APTT were determined on either a BioData or ACL 3000+ coagulation analyser. Cells were counted with a Sysmex K-1000.
Compounds were solubilized in a small volume of dimethylformamide (DMF) and diluted with saline to a final concentration of 10% DMF. Compounds were administered by the intravenous route with a Harvard infusion pump. Doses was administered over a 15 min interval at a constant rate of 0.33 ml/min. Data were obtained after each dose and in 30 min intervals following the end of drug administration. Oral doses were administered as aqueous solutions via syringe.

Another assay has as its system thrombus formation. The experiment in a line: Canine arteriovenous shunt model of thrombosis. In kind it is in vivo. The protocol:
For instance, compound 16 inhibits thrombus formation at 10, 30, and 100 µg/kg/min cumulative doses by iv infusion (75%, 37%, 12% of thrombus weight vs. vehicle control, respectively). Compound 18 inhibits thrombus formation at 3, 10, and 30 µg/kg/min cumulative doses by iv infusion (82%, 41%, 12% of thrombus weight vs. vehicle control, respectively).

The test system of the next assay is platelet aggregation. As to conditions: L. Alig, J. Med. Chem. 1992, 35, 4393; read-out: IC50 against in vitro thrombin-induced platelet aggregation; cited from earlier work.
The mark [2] stands for this setting: 10 µg/kg/min cumulative dose by iv infusion.
The mark [3] stands for this setting: 30 µg/kg/min cumulative dose by iv infusion.

Broadly, the pIC50 is −log10 of the IC50, conventionally taken in molar units.

pIC50: −log10 of the molar value. Several values for one entry are separate records, joined by “and”; a condition that tells them apart may be missing. Identical values can stand only once.

GPIIb/IIIa, sequence (P08514 32-887 limits assumed): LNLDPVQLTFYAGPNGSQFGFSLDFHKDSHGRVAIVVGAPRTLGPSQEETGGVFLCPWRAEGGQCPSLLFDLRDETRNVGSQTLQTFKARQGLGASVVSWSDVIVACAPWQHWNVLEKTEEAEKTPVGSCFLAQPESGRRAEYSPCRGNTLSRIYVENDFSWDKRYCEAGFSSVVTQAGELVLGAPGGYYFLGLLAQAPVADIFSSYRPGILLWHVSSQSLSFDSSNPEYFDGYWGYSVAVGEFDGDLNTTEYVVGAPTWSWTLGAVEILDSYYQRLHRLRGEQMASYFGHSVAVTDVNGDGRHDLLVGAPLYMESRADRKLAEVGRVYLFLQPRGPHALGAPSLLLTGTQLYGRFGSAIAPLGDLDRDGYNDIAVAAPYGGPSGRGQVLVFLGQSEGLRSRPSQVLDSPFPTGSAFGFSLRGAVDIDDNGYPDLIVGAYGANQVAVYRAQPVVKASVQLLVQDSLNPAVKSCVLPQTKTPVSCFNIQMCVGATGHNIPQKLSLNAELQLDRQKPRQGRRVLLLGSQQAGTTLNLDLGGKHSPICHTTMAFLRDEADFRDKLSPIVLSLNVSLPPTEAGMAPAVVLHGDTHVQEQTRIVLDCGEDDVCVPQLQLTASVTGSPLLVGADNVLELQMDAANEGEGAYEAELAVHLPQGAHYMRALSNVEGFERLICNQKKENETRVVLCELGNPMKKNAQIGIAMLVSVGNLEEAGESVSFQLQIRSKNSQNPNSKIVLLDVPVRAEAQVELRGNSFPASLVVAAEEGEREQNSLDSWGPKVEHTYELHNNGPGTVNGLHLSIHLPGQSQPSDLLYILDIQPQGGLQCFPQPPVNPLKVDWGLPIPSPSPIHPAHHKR
GPIIb/IIIa, sequence (P08514 891-1039 partner limits assumed): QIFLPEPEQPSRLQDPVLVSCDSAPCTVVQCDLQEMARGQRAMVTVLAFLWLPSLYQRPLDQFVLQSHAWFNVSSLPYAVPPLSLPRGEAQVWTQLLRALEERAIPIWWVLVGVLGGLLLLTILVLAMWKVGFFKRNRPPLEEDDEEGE
GPIIb/IIIa, sequence (P05106 27-788): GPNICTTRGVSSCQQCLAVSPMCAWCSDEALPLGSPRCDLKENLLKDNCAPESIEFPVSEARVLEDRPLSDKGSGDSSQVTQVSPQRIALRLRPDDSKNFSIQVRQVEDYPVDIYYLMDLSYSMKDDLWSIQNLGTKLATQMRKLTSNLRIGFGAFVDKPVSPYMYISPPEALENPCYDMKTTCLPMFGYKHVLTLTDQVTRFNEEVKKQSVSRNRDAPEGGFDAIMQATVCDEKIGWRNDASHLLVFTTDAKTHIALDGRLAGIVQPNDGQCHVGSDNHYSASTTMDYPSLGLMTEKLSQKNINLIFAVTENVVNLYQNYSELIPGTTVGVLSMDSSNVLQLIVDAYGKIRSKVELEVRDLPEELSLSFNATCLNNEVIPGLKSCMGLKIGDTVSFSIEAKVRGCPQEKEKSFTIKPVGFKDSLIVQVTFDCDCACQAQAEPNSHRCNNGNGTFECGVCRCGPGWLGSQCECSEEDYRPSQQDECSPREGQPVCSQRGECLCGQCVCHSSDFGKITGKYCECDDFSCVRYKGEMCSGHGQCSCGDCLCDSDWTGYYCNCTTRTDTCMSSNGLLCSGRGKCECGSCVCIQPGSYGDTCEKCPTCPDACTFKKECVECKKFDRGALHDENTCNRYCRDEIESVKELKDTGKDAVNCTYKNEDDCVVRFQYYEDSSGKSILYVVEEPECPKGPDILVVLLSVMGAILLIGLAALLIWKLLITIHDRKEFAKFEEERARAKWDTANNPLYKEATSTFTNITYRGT

Regarding `O=C(O)CC(NC(=O)C1CCCN(C(=O)CCC2CCNCC2)C1)c1ccc2c(c1)OCO2` [Compound 16, N-3-(4-Piperidinepropionyl)-R-(-)-nipecotyl-[(S)-3-amino-3-(3,4-methylenedioxyphenyl)]propionic acid], the figures for the pIC50 on GPIIb/IIIa and in the assay on gel-filtered platelets were 9.30 and 7.55, respectively. Moreover, the inhibition at 50 µM turned out to be 100% at GPIIb/IIIa and 94% with gel-filtered platelets. The “Duration of >50% inhibition of collagen- or ADP-induced ex vivo platelet aggregation” value is listed as 60 min in assay [1] (intravenous dosing 0.1 mpk), 60 min in assay [1] (oral dosing 1 mpk) and >180 min in assay [1] (oral dosing 3 mpk). Further, the results for the “% of thrombus weight vs. vehicle control” value in the assay with thrombus formation (setting [2]), in the assay on thrombus formation (setting [3]) and with thrombus formation (100 µg/kg/min cumulative dose by iv infusion) were 75%, 37% and 12%, respectively.
Consider `O=C(O)C[C@H](NC(=O)[C@@H]1CCCN(C(=O)CCC2CCNCC2)C1)c1cnc2ccccc2c1` [Compound 18, N-3-(4-Piperidinepropionyl)-R-(-)-nipecotyl-[(S)-3-amino-3-(3-quinolinyl)]propionic acid], for which the inhibition at 50 µM at GPIIb/IIIa and in the assay with gel-filtered platelets was 100% in each case. Besides, the pIC50 in the assay on gel-filtered platelets is 7.72. The “Duration of >50% inhibition of collagen- or ADP-induced ex vivo platelet aggregation” value in assay [1] (intravenous dosing 0.1 mpk) turned out to be 30 min; in assay [1] (oral dosing 1 mpk), 150 min. Besides, the “% of thrombus weight vs. vehicle control” value is given as 82% in the assay on thrombus formation (3 µg/kg/min cumulative dose by iv infusion), 41% in the assay on thrombus formation (setting [2]) and 12% with thrombus formation (setting [3]).
Consider `COc1cc(NC(=O)N[C@@H](CNC(=O)[C@@H]2CCCN(C(=O)CCC3CCNCC3)C2)C(=O)O)cc(OC)c1` [Compound 26, N-3-(4-Piperidinepropionyl)-R-(-)nipecotyl-[(S)-2-(3,5-dimethoxyanllino)carbonylamino-3-amino]propionic acid], for which, on GPIIb/IIIa, the inhibition at 50 µM was determined as 100%. Besides, in the assay on gel-filtered platelets, the negative logarithm of the IC50 (pIC50) is 7.80 and the inhibition at 50 µM turned out to be 97%. The “Duration of >50% inhibition of collagen-induced ex vivo platelet aggregation” value in assay [1] (oral dosing 3 mpk) is on record as 60 min.
`O=C(O)C[C@H](NC(=O)[C@@H]1CCCN(C(=O)N2CCC(C3CCNCC3)CC2)C1)c1cccnc1` [Compound 27, N-[(4,4'-Bipiperidin-1-yl-)carbonyl]-R-(-)-nipecotyl-[(S)-3-amino-3-(3-pyridyl)] propionic acid]: the inhibition at 50 µM on GPIIb/IIIa and in the assay on gel-filtered platelets was 100% in each case. Besides, in the assay with gel-filtered platelets, the pIC50 is 6.35. The “Duration of >50% inhibition of collagen-induced ex vivo platelet aggregation” value in assay [1] (intravenous dosing 0.3 mpk) is 60 min; in assay [1] (oral dosing 3 mpk), 120 min.
With `O=C(Nc1ccc2ccccc2c1)N[C@@H](CNC(=O)[C@@H]1CCCN(C(=O)CCC2CCNCC2)C1)C(=O)O` [Compound 28, N-3-(4-Piperidinepropionyl)-R-(-)nipecotyl-[(S)-2-(2-naphthylamino)carbonylamino-3-amino]propionic acid], the inhibition at 50 µM at GPIIb/IIIa stood at 100%. Besides, in the assay on gel-filtered platelets, the pIC50 was 6.77 and the inhibition at 50 µM came to 100%. In addition, in assay [1] (oral dosing 3 mpk), the “Duration of >50% inhibition of collagen-induced ex vivo platelet aggregation” value is 120 min.
For `O=C(NCCc1ccccc1)N[C@@H](CNC(=O)[C@@H]1CCCN(C(=O)CCC2CCNCC2)C1)C(=O)O` [Compound 30, N-3-(4-Piperidinepropionyl)-R-(-)nipecotyl-[(S)-2-(2-phenethylamino)carbonylamino-3-amino]propionic acid], the inhibition at 50 µM at GPIIb/IIIa and in the assay on gel-filtered platelets was 100% each time. Also, the negative-log IC50 (pIC50) with gel-filtered platelets is 6.72. The “Duration of >50% inhibition of collagen-induced ex vivo platelet aggregation” value in assay [1] (intravenous dosing 0.3 mpk) came out at 105 min; in assay [1] (oral dosing 3 mpk) it was 180 min.
Turning to `Cc1ccc([C@H](CC(=O)O)NC(=O)[C@@H]2CCCN(C(=O)CCC3CCNCC3)C2)cn1` [Compound 31, N-3-(4-Piperidinepropionyl)-R-(-)nipecotyl-[(S)-3-amino-3-(6-methyl-3-pyridyl)]propionic acid], the inhibition at 50 µM on GPIIb/IIIa and in the assay with gel-filtered platelets was 100% throughout. This compound gave a negative logarithm of the IC50 (pIC50) in the assay on gel-filtered platelets of 7.35. The “Duration of >50% inhibition of collagen-induced ex vivo platelet aggregation” value in assay [1] (intravenous dosing 0.3 mpk, 0.3 mg/kg) was 120 min and 60 min; in assay [1] (oral dosing 3 mpk, 3 mg/kg), >180 min and 180 min.
As to `CN(CC(=O)c1ccc(OCC(=O)O)c(OCC(=O)O)c1)C(=O)c1ccc(C(=N)N)cc1` [Ro-438857], the pIC50 in the assay with platelet aggregation was 7.03.
